Earlier results, collected in patent US20090215137A1, “METHODS FOR THE ECONOMICAL PRODUCTION OF BIOFUEL PRECURSOR THAT IS ALSO A BIOFUEL FROM BIOMASS” (GEVO, INC., priority 2007, published 2009).
Converted amounts (≈) assume the structure as drawn. Where two headings read alike, the source gives them in different places.

What was measured:
[1] = octanol:water
Klyveromyces marxianus = details: in binary combination

For `CCCCCCCCO` [Biocatalyst 1-octanol, 1-octanol], the Solubility in water (20° C., unless noted) is given as 300 µg/mL (≈ 2300 µM), the solubility limit (two-phase system (Chen, Q. 1995)) is given as under 1100 µg/mL and the “log P” value [1] is given as 3.
For `CCC(C)O` (stereo not drawn) [Biocatalyst 2-butanol, 2-butanol], the “log P” value [1] is listed as 0.6.
For `CC(C)O` [Biocatalyst 2-propanol, 2-propanol], the “Solubility in water (20° C., unless noted)” value (in words) is listed as “miscible”.
In the case of `COc1cc(C=O)ccc1O` [Vanillin, vanillin], the “reduction in both cell growth and fermentation” value (Klyveromyces marxianus) is given as 90%.
